Measured values reported in US12577231B2, “Androgen receptor PROTACS” (GlaxoSmithKline Intellectual Property Development Limited, priority 2023, dated 2026).

Target: T1, Androgen Receptor dual T878A/L702H mutant protein (Homo sapiens, UniProt P10275, L702H/T878A)
T1 construct: host or cells: MDA-PCa-2b
T1 sequence (P10275 1-920 L702H/T878A): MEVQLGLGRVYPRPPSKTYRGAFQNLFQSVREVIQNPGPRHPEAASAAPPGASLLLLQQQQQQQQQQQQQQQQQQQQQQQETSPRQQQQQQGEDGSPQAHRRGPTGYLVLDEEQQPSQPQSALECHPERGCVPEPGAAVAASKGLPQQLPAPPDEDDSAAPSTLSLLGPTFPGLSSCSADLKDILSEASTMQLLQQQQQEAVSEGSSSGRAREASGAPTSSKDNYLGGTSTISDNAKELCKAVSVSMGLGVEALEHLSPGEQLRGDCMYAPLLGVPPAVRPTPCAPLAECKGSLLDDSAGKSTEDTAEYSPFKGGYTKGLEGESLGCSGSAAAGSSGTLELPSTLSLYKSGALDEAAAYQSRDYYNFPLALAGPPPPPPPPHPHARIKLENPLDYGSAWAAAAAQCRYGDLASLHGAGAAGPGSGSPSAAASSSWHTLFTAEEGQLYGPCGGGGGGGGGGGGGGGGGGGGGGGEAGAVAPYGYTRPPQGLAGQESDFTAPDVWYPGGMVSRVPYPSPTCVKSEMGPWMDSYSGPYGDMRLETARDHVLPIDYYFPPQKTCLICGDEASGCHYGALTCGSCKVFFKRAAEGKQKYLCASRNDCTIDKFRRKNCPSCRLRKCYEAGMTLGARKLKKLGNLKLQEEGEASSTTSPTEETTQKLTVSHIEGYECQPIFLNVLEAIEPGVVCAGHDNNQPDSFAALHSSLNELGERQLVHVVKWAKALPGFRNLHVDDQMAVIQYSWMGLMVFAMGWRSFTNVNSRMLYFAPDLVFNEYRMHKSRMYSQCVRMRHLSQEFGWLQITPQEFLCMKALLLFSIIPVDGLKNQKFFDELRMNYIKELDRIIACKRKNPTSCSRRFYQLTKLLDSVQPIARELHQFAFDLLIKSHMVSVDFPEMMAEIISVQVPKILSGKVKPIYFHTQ
Experiment: Dual Mutant (T878A/L702H) Androgen Receptor Degradation Assay (HTRF, MDA-PCa-2b cells)
Assay type: cell-based
Conditions: 18 h, 18 h incubation, read-out: mean asymptote max
Protocol: Degradation of Androgen Receptor dual T878A/L702H mutant protein in human MDA-PCa-2b (ATCC) cells treated with PROTACs was quantified using the HTRF Human Androgen Receptor Detection Kit (PerkinElmer) in 384 well assay plate format. 10 mM DMSO (Sigma-Aldrich) stock solutions of PROTACs were prepared and diluted across an 11 concentration, 3-fold increment range, and 25 nL dispensed into a white opaque bottomed 384 well assay plate (Thermofisher) using an acoustic ECHO dispenser (Labcyte). Cells were cultured in growth medium (BRFF—HPC-1 (Athena ES) supplemented with 20% FBS (Gibco), penicillin 50U/mL and streptomycin 50 μg/mL (Gibco, #15140-122)) in collagen I or poly-D-lysine coated T175 flasks (Corning, #356487 or #356539, respectively). For the assay, cells were harvested from the flask, centrifuged at 200 g for 5 min and then resuspended in the growth medium. 25 μl of cell suspension containing 10,000 cells was dispensed into each well of the assay plate containing the test compounds, which was then incubated for 18 h at 37° C./5% CO2. Control wells were included on each assay plate, with assay medium without cells being the no AR remaining 100% effect control, and cells treated with DMSO vehicle only, without PROTAC, the 0% effect control. After 18 h incubation 8 μl of supplemented lysis buffer from HTRF kit was added to each well and the plate shaken at 500 rpm for 1 h at room temperature. 8 μl of antibody mix in Detection buffer from HTRF kit was added to each well and the plate was incubated for 2 h in dark at mom temperature. The fluorescence was measured at both 620 nm and 665 nm using an excitation wavelength of 337 nm with a PHERAstar microplate reader (BMG Labtech) and the % AR protein remaining in each well was calculated by normalising the HTRF ratio (665 nm signal/620 nm signal) value to the control wells mentioned above. Parameters corresponding to the potency and efficacy estimates of the PROTACs were obtained from these normalised values using curve fitting software (IDBS ActivityBase). These included the DC50 and the Dmax estimates. Two versions of the DC50, called relative DC50 and absolute DC50, were typically generated. These are the inflection point of a fitted 4 parameter sigmoidal response curve and the interpolated concentration of PROTAC corresponding to 50% of the protein being degraded, respectively. The Dmax parameter was the maximum experimentally observed degradation and the asymptote max parameter the fitted response curve asymptote maximum.

Dmax, ≥ 50%:
COc1cc(O[C@H]2C(C)(C)[C@H](NC(=O)c3ccc(N4CCC(CN5CCC(n6ccc7c(N8CCC(=O)NC8=O)cccc76)CC5)CC4)c(F)c3)C2(C)C)ccc1C#N [Example 22, N-((1r,3r)-3-(4-Cyano-3-methoxyphenoxy)-2,2,4,4-tetramethylcyclobutyl)-4-(4-((4-(4-(2,4-dioxotetrahydropyrimidin-1(2H)-yl)-1H-indol-1-yl)piperidin-1-yl)methyl)piperidin-1-yl)-3-fluorobenzamide]
CC1(C)[C@H](NC(=O)c2ccc(N3CCC(CN4CCC(n5ncc6c(N7CCC(=O)NC7=O)cccc65)CC4)CC3)c(F)c2)C(C)(C)[C@H]1Oc1ccc(C#N)c2c1CCO2 [Example 9, N-((1r,3r)-3-((7-Cyano-2,3-dihydrobenzofuran-4-yl)oxy)-2,2,4,4-tetramethylcyclobutyl)-4-(4-((4-(4-(2,4-dioxotetrahydropyrimidin-1(2H)-yl)-1H-indazol-1-yl)piperidin-1-yl)methyl)piperidin-1-yl)-3-fluorobenzamide]
CC1(C)[C@H](NC(=O)c2cc(F)c(N3CCC(CN4CCC(n5ncc6c(N7CCC(=O)NC7=O)cccc65)CC4)CC3)cc2F)C(C)(C)[C@H]1Oc1ccc(C#N)c2ncccc12 [Example 35, N-((1r,3r)-3-((8-Cyanoquinolin-5-yl)oxy)-2,2,4,4-tetramethylcyclobutyl)-4-(4-((4-(4-(2,4-dioxotetrahydropyrimidin-1(2H)-yl)-1H-indazol-1-yl)piperidin-1-yl)methyl)piperidin-1-yl)-2,5-difluorobenzamide]
CC1(C)[C@H](NC(=O)c2ccc(N3CCC(CN4CCC(n5ncc6c(N7CCC(=O)NC7=O)cc(F)cc65)CC4)CC3)c(F)c2)C(C)(C)[C@H]1Oc1ccc(C#N)c(Cl)c1 [Example 11, N-((1r,3r)-3-(3-Chloro-4-cyanophenoxy)-2,2,4,4-tetramethylcyclobutyl)-4-(4-((4-(4-(2,4-dioxotetrahydropyrimidin-1(2H)-yl)-6-fluoro-1H-indazol-1-yl)piperidin-1-yl)methyl)piperidin-1-yl)-3-fluorobenzamide]
CC1(C)[C@H](NC(=O)c2ccc(N3CCC(CN4CCC(n5ccc6c(N7CCC(=O)NC7=O)c(F)ccc65)CC4)CC3)c(F)c2)C(C)(C)[C@H]1Oc1ccc(C#N)c(Cl)c1 [Example 12, N-((1r,3r)-3-(3-Chloro-4-cyanophenoxy)-2,2,4,4-tetramethylcyclobutyl)-4-(4-((4-(4-(2,4-dioxotetrahydropyrimidin-1(2H)-yl)-5-fluoro-1H-indol-1-yl)piperidin-1-yl)methyl)piperidin-1-yl)-3-fluorobenzamide]
COc1cc(O[C@H]2C(C)(C)[C@H](NC(=O)c3ccc(N4CCC(CN5CCC(n6ncc7c(N8CCC(=O)NC8=O)c(F)ccc76)CC5)CC4)c(F)c3)C2(C)C)ccc1C#N [Example 25, N-((1r,3r)-3-(4-Cyano-3-methoxyphenoxy)-2,2,4,4-tetramethylcyclobutyl)-4-(4-((4-(4-(2,4-dioxotetrahydropyrimidin-1(2H)-yl)-5-fluoro-1H-indazol-1-yl)piperidin-1-yl)methyl)piperidin-1-yl)-3-fluorobenzamide]
Cc1c(O[C@H]2C(C)(C)[C@H](NC(=O)c3ccc(N4CCC(CN5CCC(n6ncc7c(N8CCC(=O)NC8=O)cccc76)CC5)CC4)c(F)c3)C2(C)C)ccc(C#N)c1Cl [Example 2, N-((1r,3r)-3-(3-Chloro-4-cyano-2-methylphenoxy)-2,2,4,4-tetramethylcyclobutyl)-4-(4-((4-(4-(2,4-dioxotetrahydropyrimidin-1(2H)-yl)-1H-indazol-1-yl)piperidin-1-yl)methyl)piperidin-1-yl)-3-fluorobenzamide]
CC1(C)[C@H](NC(=O)c2ccc(N3CCC(CN4CC[C@H](n5ncc6c(N7CCC(=O)NC7=O)cccc65)[C@H](F)C4)CC3)c(F)c2)C(C)(C)[C@H]1Oc1ccc(C#N)c(Cl)c1 [Example 14, N-((1r,3r)-3-(3-Chloro-4-cyanophenoxy)-2,2,4,4-tetramethylcyclobutyl)-4-(4-(((3R,4S)-4-(4-(2,4-dioxotetrahydropyrimidin-1(2H)-yl)-1H-indazol-1-yl)-3-fluoropiperidin-1-yl)methyl)piperidin-1-yl)-3-fluorobenzamide]
CCOc1cc(O[C@H]2C(C)(C)[C@H](NC(=O)c3ccc(N4CCC(CN5CCC(n6ncc7c(N8CCC(=O)NC8=O)cccc76)CC5)CC4)c(F)c3)C2(C)C)ccc1C#N [Example 4, N-((1r,3r)-3-(4-Cyano-3-ethoxyphenoxy)-2,2,4,4-tetramethylcyclobutyl)-4-(4-((4-(4-(2,4-dioxotetrahydropyrimidin-1(2H)-yl)-1H-indazol-1-yl)piperidin-1-yl)methyl)piperidin-1-yl)-3-fluorobenzamide]
CC1(C)[C@H](NC(=O)c2ccc(N3CCC(CN4CC[C@H](n5ncc6c(N7CCC(=O)NC7=O)cccc65)C4)CC3)c(F)c2)C(C)(C)[C@H]1Oc1ccc(C#N)c(Cl)c1 [Example 10, N-((1r,3r)-3-(3-Chloro-4-cyanophenoxy)-2,2,4,4-tetramethylcyclobutyl)-4-(4-(((S)-3-(4-(2,4-dioxotetrahydropyrimidin-1(2H)-yl)-1H-indazol-1-yl)pyrrolidin-1-yl)methyl)piperidin-1-yl)-3-fluorobenzamide]
COc1cc(O[C@H]2C(C)(C)[C@H](NC(=O)c3ccc(N4CCC(CN5CC[C@H](n6ncc7c(N8CCC(=O)NC8=O)cccc76)[C@H](F)C5)CC4)c(F)c3)C2(C)C)ccc1C#N [Example 26, N-((1r,3r)-3-(4-Cyano-3-methoxyphenoxy)-2,2,4,4-tetramethylcyclobutyl)-4-(4-(((3R,4S)-4-(4-(2,4-dioxotetrahydropyrimidin-1(2H)-yl)-1H-indazol-1-yl)-3-fluoropiperidin-1-yl)methyl)piperidin-1-yl)-3-fluorobenzamide]
COc1cc(O[C@H]2C(C)(C)[C@H](NC(=O)c3ccc(N4CCC(CN5CCC(n6ncc7c(N8CCC(=O)NC8=O)cccc76)CC5)CC4)c(F)c3)C2(C)C)ccc1C#N [Example 21, N-((1r,3r)-3-(4-Cyano-3-methoxyphenoxy)-2,2,4,4-tetramethylcyclobutyl)-4-(4-((4-(4-(2,4-dioxotetrahydropyrimidin-1(2H)-yl)-1H-indazol-1-yl)piperidin-1-yl)methyl)piperidin-1-yl)-3-fluorobenzamide]
COc1cc(O[C@H]2C(C)(C)[C@H](NC(=O)c3ccc(N4CCC(CN5CCC(n6ccc7c(N8CCC(=O)NC8=O)c(F)ccc76)CC5)CC4)c(F)c3)C2(C)C)ccc1C#N [Example 23, N-((1r,3r)-3-(4-Cyano-3-methoxyphenoxy)-2,2,4,4-tetramethylcyclobutyl)-4-(4-((4-(4-(2,4-dioxotetrahydropyrimidin-1(2H)-yl)-5-fluoro-1H-indol-1-yl)piperidin-1-yl)methyl)piperidin-1-yl)-3-fluorobenzamide]
